Data from the supplement of paper PMC11208160.

Assay: recombinant barcode read abundance after kanamycin selection (control-corrected) (log10(CPM+1)); higher = more efficient recombination; sequences stand for … in AGTGCAGAGAAAATCGGCCAGTTTTCTCTGCCTGCAGTCCGCATGCCGT…AGATTTATGCAGCGGACTGCCTTTCTCCCAAAGTGATAAACCGGACAGTATCATGGACCGGTTTTCCCGGTAATCCGTATTTGCAAGGTTGGTTTCACT; site = the 11-nt target
In short: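 For this pooled screen, each oligo contained a promoter, a target, a barcode and the J23119-driven first 104 bases of the bridge RNA. Gibson cloning placed it into a vector supplying the remaining 73 bp and a T7-inducible recombinase, and the pool was co-electroporated into E. coli with a donor plasmid. Recombination efficiency is derived from barcode counts per million at recombinant junctions after averaging and control correction, and is expressed on a log scale as log10(CPM+1), with selection on chloramphenicol/ampicillin/kanamycin plus 0.1 mM IPTG against a chloramphenicol/ampicillin LB agar control.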
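Further: IS621 recombinase and bridge RNA in Escherichia coli cells.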

Row | Sequence | recombinant barcode read abundance (log10)
1 | GAAGTCACTTGGGTTCTAACCTGTTGCCT (site TAAGTCACTAG) | 1.6
2 | GAAGTCTCTTGGGTTCTAACCTGTTGCCT (site GAAGTCTCTAG) | 2.59
3 | GAAGTCTCTTGGGTTCTAACCTGTTGCCT (site GTAGTCCCTAG) | 0.0661
4 | GAATCGACTTGGGTTCTAACCTGTTGCCT (site AGGGTACCTCT) | 0.192
5 | GAATCGACTTGGGTTCTAACCTGTTGCCT (site GAATCGACTAG) | 0.421
6 | GAATCTTCTTGGGTTCTAACCTGTTGCTT (site CAATCGTCTAA) | 0.0978
7 | GAATCTTCTTGGGTTCTAACCTGTTGCTT (site GAATCTTCTAA) | 0.0983
8 | GACAAACCTTGGGTTCTAACCTGTTGCGG (site GACAAACCTCC) | 1.64
9 | GACAAACCTTGGGTTCTAACCTGTTGCGG (site GACACAACTCC) | 0.0381
10 | GACACAACTTGGGTTCTAACCTGTTGCGG (site GACAAACCTCC) | 0.0119
11 | GACACAACTTGGGTTCTAACCTGTTGCGG (site GACACAACTCC) | 1.14
12 | GACACACCTTGGGTTCTAACCTGTTGCAT (site GACACACCTAT) | 1.02
13 | GACACACCTTGGGTTCTAACCTGTTGCAT (site GTCACGCCTAT) | 0.0207
14 | GACACCTCTTGGGTTCTAACCTGTTGCCG (site GACACCTCTCG) | 1.12
15 | GACACCTCTTGGGTTCTAACCTGTTGCCG (site TCTGAAACTAA) | 0.157
16 | GACACCTCTTGGGTTCTAACCTGTTGCTT (site GACACCTCTAA) | 1.03
17 | GACACCTCTTGGGTTCTAACCTGTTGCTT (site GACACGTCTAG) | 0.461
18 | GACACGCCTTGGGTTCTAACCTGTTGCTT (site GACACGCCTAA) | 0.201
19 | GACACGCCTTGGGTTCTAACCTGTTGCTT (site GACACGCCTAC) | 0.0239
20 | GACACGCCTTGGGTTCTAACCTGTTGCTT (site GACACGCCTAG) | 0.0922
21 | GACACGCCTTGGGTTCTAACCTGTTGCTT (site GACACGCCTAT) | 0.0718
22 | GACACTGCTTGGGTTCTAACCTGTTGCCT (site GAAACTGCTAG) | 0.274

Row | Sequence | recombinant barcode read abundance (log10)
23 | GACACTGCTTGGGTTCTAACCTGTTGCCT (site GACACTGCTAG) | 0.403
24 | GACACTGCTTGGGTTCTAACCTGTTGCCT (site GAGACTGCTAG) | 0.044
25 | GACACTGCTTGGGTTCTAACCTGTTGCCT (site GATACTGCTAG) | 0.233
26 | GACAGGCCTTGGGTTCTAACCTGTTGCGT (site CTGCTAGCTCT) | 0.278
27 | GACAGGCCTTGGGTTCTAACCTGTTGCGT (site GACAGGCCTAC) | 1.31
28 | GACATACCTTGGGTTCTAACCTGTTGCCT (site GACATACCTAG) | 0.794
29 | GACATACCTTGGGTTCTAACCTGTTGCCT (site GACCTACCTAG) | 0.273
30 | GACATACCTTGGGTTCTAACCTGTTGCCT (site GACGTACCTAG) | 0.412
31 | GACATACCTTGGGTTCTAACCTGTTGCCT (site GACTTACCTAG) | 0.251
32 | GACATCGCTTGGGTTCTAACCTGTTGCCT (site GACATCACTAG) | 0.0851
33 | GACATCGCTTGGGTTCTAACCTGTTGCCT (site GACATCCCTAG) | 0.0326
34 | GACATCGCTTGGGTTCTAACCTGTTGCCT (site GACATCGCTAG) | 1.64
35 | GACATCGCTTGGGTTCTAACCTGTTGCCT (site GACATCTCTAG) | 0.641
36 | GACCACTCTTGGGTTCTAACCTGTTGCCT (site AACCACTCTAG) | 1.4
37 | GACCACTCTTGGGTTCTAACCTGTTGCCT (site CACCACTCTAG) | 1.2
38 | GACCACTCTTGGGTTCTAACCTGTTGCCT (site GACCACTCTAG) | 2.39
39 | GACCACTCTTGGGTTCTAACCTGTTGCCT (site TACCACTCTAG) | 1.42
40 | GACCAGCCTTGGGTTCTAACCTGTTGCAT (site GACCAGCCTAA) | 0.106
41 | GACCAGCCTTGGGTTCTAACCTGTTGCAT (site GACCAGCCTAC) | 0.74
42 | GACCAGCCTTGGGTTCTAACCTGTTGCAT (site GACCAGCCTAG) | 0.466
43 | GACCAGCCTTGGGTTCTAACCTGTTGCAT (site GACCAGCCTAT) | 1.82
44 | GACCAGCCTTGGGTTCTAACCTGTTGCGT (site GACCAGCCTAA) | 0.104

Row | Sequence | recombinant barcode read abundance (log10)
45 | GACCAGCCTTGGGTTCTAACCTGTTGCGT (site GACCAGCCTAC) | 2.4
46 | GACCAGCCTTGGGTTCTAACCTGTTGCGT (site GACCAGCCTAG) | 0.266
47 | GACCAGCCTTGGGTTCTAACCTGTTGCGT (site GACCAGCCTAT) | 1.32
48 | GACCAGCCTTGGGTTCTAACCTGTTGCTT (site GACCAGCCTAA) | 1.59
49 | GACCAGCCTTGGGTTCTAACCTGTTGCTT (site GACCAGCCTAC) | 0.994
50 | GACCAGCCTTGGGTTCTAACCTGTTGCTT (site GACCAGCCTAG) | 1.29
51 | GACCAGCCTTGGGTTCTAACCTGTTGCTT (site GACCAGCCTAT) | 0.746
52 | GACCCACCTTGGGTTCTAACCTGTTGCCT (site AACCCACCTAG) | 1.64
53 | GACCCACCTTGGGTTCTAACCTGTTGCCT (site CACCCACCTAG) | 0.814
54 | GACCCACCTTGGGTTCTAACCTGTTGCCT (site GACCCACCTAG) | 1.76
55 | GACCCACCTTGGGTTCTAACCTGTTGCCT (site TACCCACCTAG) | 1.4
56 | GACCCATCTTGGGTTCTAACCTGTTGCCT (site GACACAACTAG) | 0.0316
57 | GACCCATCTTGGGTTCTAACCTGTTGCCT (site GACCCATCTAG) | 0.683
58 | GACCGCGCTTGGGTTCTAACCTGTTGCCT (site GACCGAGCTAG) | 0.672
59 | GACCGCGCTTGGGTTCTAACCTGTTGCCT (site GACCGCGCTAG) | 1.05
60 | GACCGCGCTTGGGTTCTAACCTGTTGCCT (site GACCGGGCTAG) | 0.0432
61 | GACCGCGCTTGGGTTCTAACCTGTTGCCT (site GACCGTGCTAG) | 0.0542
62 | GACCGGACTTGGGTTCTAACCTGTTGCGT (site GACCGGACTAC) | 2.44
63 | GACCGGACTTGGGTTCTAACCTGTTGCGT (site GAGTGGACTAC) | 0.0356
64 | GACGAAGCTTGGGTTCTAACCTGTTGCCT (site GACGAAGCTAG) | 0.348
65 | GACGAAGCTTGGGTTCTAACCTGTTGCCT (site TCCGAAGCTAG) | 0.0613
66 | GACGATCCTTGGGTTCTAACCTGTTGCAT (site GACGATCCTAT) | 0.547

Row | Sequence | recombinant barcode read abundance (log10)
67 | GACGATCCTTGGGTTCTAACCTGTTGCAT (site GGCGAACCTAT) | 0.077
68 | GACGATCCTTGGGTTCTAACCTGTTGCCT (site GACGATCCTAG) | 0.66
69 | GACGATCCTTGGGTTCTAACCTGTTGCCT (site GCCGATCCTAG) | 0.0719
70 | GACGATCCTTGGGTTCTAACCTGTTGCCT (site GGCGATCCTAG) | 0.255
71 | GACGATCCTTGGGTTCTAACCTGTTGCCT (site GTCGATCCTAG) | 0.0852
72 | GACGCGGCTTGGGTTCTAACCTGTTGCCT (site GACGCGGCTAG) | 0.184
73 | GACGCGGCTTGGGTTCTAACCTGTTGCCT (site TTGCGAACTCT) | 0.059
74 | GACGGTCCTTGGGTTCTAACCTGTTGCGG (site GACGGTCCTCC) | 2.15
75 | GACGGTCCTTGGGTTCTAACCTGTTGCGG (site GATGGTCCTCC) | 0.418
76 | GACGTGTCTTGGGTTCTAACCTGTTGCCG (site GACGTGTCTCG) | 0.408
77 | GACGTGTCTTGGGTTCTAACCTGTTGCCG (site GGCGTGTCTCC) | 0.0409
78 | GACGTGTCTTGGGTTCTAACCTGTTGCGT (site AGTCATACTTG) | 0
79 | GACGTGTCTTGGGTTCTAACCTGTTGCGT (site GACGTGTCTAC) | 2.47
80 | GACTCATCTTGGGTTCTAACCTGTTGCGG (site GACTCATCTCC) | 0.151
81 | GACTCATCTTGGGTTCTAACCTGTTGCGG (site GACTTGTCTCC) | 0.11
82 | GACTCTCCTTGGGTTCTAACCTGTTGCTG (site GACTCTCCTCA) | 0.146
83 | GACTCTCCTTGGGTTCTAACCTGTTGCTG (site GACTCTCCTCT) | 0.0367
84 | GACTGAGCTTGGGTTCTAACCTGTTGCGT (site GACTGAGCTAC) | 2.58
85 | GACTGAGCTTGGGTTCTAACCTGTTGCGT (site GGCTGAGCTAG) | 0.236
86 | GACTGCCCTTGGGTTCTAACCTGTTGCGG (site GACTGCCCTCC) | 1.54
